Measurements: patent US11219221B2 (FarmHannong Co., Ltd., priority 2017, dated 2022)

Tests used:
[1] = biological target: Thermosynechococcus sp. NK55a PPO CyPPO17 (SEQ ID NO: 3) variant V304M (MBP fusion); assay: PPO enzyme inhibition (IC50), MBP-fused PPO; type: biochemical; details: 50 μM protoporphyrinogen IX, pH 8.0, room temperature, 30 min
Description: (§1) Thus, PPO proteins of wild type and variants were expressed as fused to MBP and were used for experiments.
(§2) The following process for purification of PPO protein was performed in a 4° C. cold room. Amylose resin (NEB) was packed to 1.5×15 cm column (Bio-Rad, Econo Columns 1.5×15 cm, glass chromatography column, max. vol), and the obtained protein extracts were loaded to the column at a flow rate of 0.2 ml/min. The column was washed with 3 column volumes of buffer and the presence of protein in the washing solution was examined. When the protein was no longer detected, the washing procedure was terminated. Then, the MBP-PPO protein was eluted with approximately 2 column volumes of buffer containing 20 mM maltose. The protein concentration of each eluent was determined and the elution was stopped when the protein was no longer detected. Ten microliter of each fraction was investigated for protein quantification and SDS-PAGE analysis. The highly pure fractions of PPO protein variants were used for the enzyme assay.
(§3) Overall process was performed in dark under nitrogen stream. […] of protoporphyrin IX was dissolved in 20 ml of 20% (v/v) EtOH, and stirred under dark condition for 30 minutes. The obtained protoporphyrin IX solution was put into a 15 ml screw tube in an amount of 800 μl, and flushed with nitrogen gas for 5 minutes. To this, 1.5 g of sodium amalgam was added and vigorously shaken for 2 minutes. The lid was opened to exhaust hydrogen gas in the tube. Thereafter, the lid was closed and incubated for 3 minutes. […] To determine the enzyme activity of PPO protein, a reaction mixture was prepared with the following composition (based on 10 ml): 50 mM Tris-Cl (pH 8.0); 50 mM NaCl; 0.04% (v/v) Tween 20; 40 mM glucose (0.072 g); 5 units glucose oxidase (16.6 mg); and 10 units catalase (1 μl).
(§4) Hundred and eighty microliters of a reaction mixture containing the purified PPO protein were placed in 96 well plates and 20 μl of […] were added. […] The reaction proceeded at room temperature for 30 min and the fluorescence of protoporphyrin IX was measured using Microplate reader (Sense, Hidex) (excitation: 405 nm; emission: 633 nm). […] To this, 2.7 N HCl was added, and the absorbance at 408 nm was measured. A standard curve was generated using standard protoporphyrin IX, and PPO activity was measured by calibration of protoporphyrin IX using the standard curve of protoporphyrin IX.

[2] = biological target: Thermosynechococcus sp. NK55a PPO CyPPO17 (SEQ ID NO: 3) variant A166L (MBP fusion); assay: PPO enzyme inhibition (IC50), MBP-fused PPO; type: biochemical; details: 50 μM protoporphyrinogen IX, pH 8.0, room temperature, 30 min
Description: as §1, §2, §3, §4

[3] = biological target: Thermosynechococcus sp. NK55a PPO CyPPO17, wild type, SEQ ID NO: 3 (MBP fusion); assay: PPO enzyme inhibition (IC50), MBP-fused PPO; type: biochemical; details: 50 μM protoporphyrinogen IX, pH 8.0, room temperature, 30 min
Description: as §1, §2, §3, §4

[4] = biological target: Thermosynechococcus sp. NK55a PPO CyPPO17 (SEQ ID NO: 3) variant L326T (MBP fusion); assay: PPO enzyme inhibition (IC50), MBP-fused PPO; type: biochemical; details: 50 μM protoporphyrinogen IX, pH 8.0, room temperature, 30 min
Description: as §1, §2, §3, §4

[5] = biological target: Thermosynechococcus sp. NK55a PPO CyPPO17 (SEQ ID NO: 3) variant V164C (MBP fusion); assay: PPO enzyme inhibition (IC50), MBP-fused PPO; type: biochemical; details: 50 μM protoporphyrinogen IX, pH 8.0, room temperature, 30 min
Description: as §1, §2, §3, §4

[6] = biological target: Thermosynechococcus sp. NK55a PPO CyPPO17 (SEQ ID NO: 3) variant R88A (MBP fusion); assay: PPO enzyme inhibition (IC50), MBP-fused PPO; type: biochemical; details: 50 μM protoporphyrinogen IX, pH 8.0, room temperature, 30 min
Description: as §1, §2, §3, §4

[7] = biological target: Thermosynechococcus sp. NK55a PPO CyPPO17 (SEQ ID NO: 3) variant F160A (MBP fusion); assay: PPO enzyme inhibition (IC50), MBP-fused PPO; type: biochemical; details: 50 μM protoporphyrinogen IX, pH 8.0, room temperature, 30 min
Description: as §1, §2
(§5) Since protoporphyrinogen IX, a substrate of PPO protein, was not commercially available, it was chemically synthesized in the laboratory. Overall process was performed in dark under nitrogen stream. […] of protoporphyrin IX was dissolved in 20 ml of 20% (v/v) EtOH, and stirred under dark condition for 30 minutes. The obtained protoporphyrin IX solution was put into a 15 ml screw tube in an amount of 800 μl, and flushed with nitrogen gas for 5 minutes. To this, 1.5 g of sodium amalgam was added and vigorously shaken for 2 minutes. The lid was opened to exhaust hydrogen gas in the tube. Thereafter, the lid was closed and incubated for 3 minutes. The protoporphyrinogen IX solution was filtered using syringe and cellulose membrane filter. […] To determine the enzyme activity of PPO protein, a reaction mixture was prepared with the following composition (based on 10 ml): 50 mM Tris-Cl (pH 8.0); 50 mM NaCl; 0.04% (v/v) Tween 20; 40 mM glucose (0.072 g); 5 units glucose oxidase (16.6 mg); and 10 units catalase (1 μl).
as §4

[8] = biological target: Thermosynechococcus sp. NK55a PPO CyPPO17 (SEQ ID NO: 3) variant A166C (MBP fusion); assay: PPO enzyme inhibition (IC50), MBP-fused PPO; type: biochemical; details: 50 μM protoporphyrinogen IX, pH 8.0, room temperature, 30 min
Description: as §1, §2, §5, §4

[9] = biological target: Spirulina subsalsa PPO CyPPO16 (SEQ ID NO: 1) variant R85A (MBP fusion); assay: PPO enzyme inhibition (IC50), MBP-fused PPO; type: biochemical; details: 50 μM protoporphyrinogen IX, pH 8.0, room temperature, 30 min
Description: as §1, §2, §5, §4

[10] = biological target: Spirulina subsalsa PPO CyPPO16, wild type, SEQ ID NO: 1 (MBP fusion); assay: PPO enzyme inhibition (IC50), MBP-fused PPO; type: biochemical; details: 50 μM protoporphyrinogen IX, pH 8.0, room temperature, 30 min
Description: as §1, §2, §5, §4

[11] = biological target: Thermosynechococcus sp. NK55a PPO CyPPO17 (SEQ ID NO: 3) variant F323V (MBP fusion); assay: PPO enzyme inhibition (IC50), MBP-fused PPO; type: biochemical; details: 50 μM protoporphyrinogen IX, pH 8.0, room temperature, 30 min
Description: as §1, §2, §5, §4

[12] = biological target: Spirulina subsalsa PPO CyPPO16 (SEQ ID NO: 1) variant F156A (MBP fusion); assay: PPO enzyme inhibition (IC50), MBP-fused PPO; type: biochemical; details: 50 μM protoporphyrinogen IX, pH 8.0, room temperature, 30 min
Description: as §1, §2, §5, §4

[13] = biological target: Spirulina subsalsa PPO CyPPO16 (SEQ ID NO: 1) variant V305M (MBP fusion); assay: PPO enzyme inhibition (IC50), MBP-fused PPO; type: biochemical; details: 50 μM protoporphyrinogen IX, pH 8.0, room temperature, 30 min
Description: as §1, §2, §5, §4

[14] = biological target: Spirulina subsalsa PPO CyPPO16 (SEQ ID NO: 1) variant V160C (MBP fusion); assay: PPO enzyme inhibition (IC50), MBP-fused PPO; type: biochemical; details: 50 μM protoporphyrinogen IX, pH 8.0, room temperature, 30 min
Description: as §1, §2, §5, §4

[15] = biological target: Spirulina subsalsa PPO CyPPO16 (SEQ ID NO: 1) variant F324V (MBP fusion); assay: PPO enzyme inhibition (IC50), MBP-fused PPO; type: biochemical; details: 50 μM protoporphyrinogen IX, pH 8.0, room temperature, 30 min
Description: as §1, §2, §5, §4

[16] = biological target: Spirulina subsalsa PPO CyPPO16 (SEQ ID NO: 1) variant L327T (MBP fusion); assay: PPO enzyme inhibition (IC50), MBP-fused PPO; type: biochemical; details: 50 μM protoporphyrinogen IX, pH 8.0, room temperature, 30 min
Description: as §1, §2, §5, §4

[17] = biological target: Spirulina subsalsa PPO CyPPO16 (SEQ ID NO: 1) variant A162L (MBP fusion); assay: PPO enzyme inhibition (IC50), MBP-fused PPO; type: biochemical; details: 50 μM protoporphyrinogen IX, pH 8.0, room temperature, 30 min
Description: as §1, §2, §5, §4

[18] = biological target: Spirulina subsalsa PPO CyPPO16 (SEQ ID NO: 1) variant A162C (MBP fusion); assay: PPO enzyme inhibition (IC50), MBP-fused PPO; type: biochemical; details: 50 μM protoporphyrinogen IX, pH 8.0, room temperature, 30 min
Description: as §1, §2, §5, §4

[19] = system: transgenic A. thaliana (CyPPO16, CyPPO17 and variants); assay: Herbicide spray test on Arabidopsis (T1); type: in vivo, Arabidopsis thaliana; details: 1 μM spray (100 ml, 0.24 m^2), 4-week-old T1 plants
Excerpt: A. thaliana was transformed with a binary vector having ORF of a selectable marker, Bar gene (glufosinate-tolerant gene), and ORF of each mutant gene of CyPPO16 and CyPPO17. The transgenic plant was examined for cross-tolerance towards glufosinate and PPO-inhibiting herbicides. The bar gene was also used to examine whether the transgene was stably inherited during generations. NOS promoter and E9 terminator were used for bar gene expression.
In order to express proteins of CyPPO16, CyPPO16 variants, CyPPO17, and CyPPO17 variants in plants, a CaMV35S promoter and a NOS terminator were used. Encoding genes of CyPPO16, CyPPO16 variants, CyPPO17, and CyPPO17 variants were introduced into binary vector using Xhol and BamHI restriction enzymes. Furthermore, for confirmation of the protein expression, hemagglutinin (HA) tag was fused to the C-terminal region of PPO protein coding gene using BamHI and Sad restriction enzymes. In addition, in order to transit protein to chloroplast, transit peptide (TP) gene (SEQ ID NO: 90) of AtPPO1 gene (SEQ ID NO: 89) was fused to N-terminal region of PPO protein coding gene using Xbal and Xhol restriction enzymes.
Transgenic plants were screened with glufosinate tolerance which was conferred by Bar gene expression in the binary vector. […]

With `COC(=O)CCNC(=O)C(C)Sc1cc(-n2c(=O)cc(C(F)(F)F)n(C)c2=O)c(F)cc1Cl` (stereo not shown) [tiafenacil] the IC50 [1] was 102 nM, the IC50 [2] was 1130 nM and the IC50 [3] was 44 nM. For the same molecule, the IC50 [4] was 194 nM, the IC50 [5] was 87 nM and the IC50 [6] was 152 nM. It also gave an IC50 [7] of 115 nM, an IC50 [8] of 219 nM and an IC50 [9] of 119 nM. The IC50 [10] was 26 nM, the IC50 [11] was 152 nM and the IC50 [12] was 60 nM. It also gave an IC50 [13] of 43 nM, an IC50 [14] of 45 nM and an IC50 [15] of 103 nM. It also gave an IC50 [16] of 40 nM, an IC50 [17] of 193 nM and an IC50 [18] of 79 nM. For the same molecule, the “Plant damage after herbicide spray” value [19] was “no damage”.
